Source: patent US9249129B2, “Morpholino substituted urea derivatives as mTOR inhibitors” (CELLZOME LIMITED, priority 2010, dated 2016)

What was measured:
Experiment in all cases: kinobeads assay with mass spectrometry detection of kinases (kinase selectivity profile)
Assay type in all cases: binding
[1] = target: T1, kinases (kinome) (Homo sapiens, UniProt P00519); details: ABL (TK), IPI00221171
T1 construct: determined in kinobeads assays with mass spectrometry detection of kinases as described previously; endogenous in cells; host or cells: cell lysate
Text: (§1) The protein kinase complement of the human genome (the kinome) was described previously (Manning et al., 2002. Science 298(5600):1912-1934). Sequence accession numbers are defined by the International Protein Index (IPI) (Kersey et al., 2004. Proteomics 4(7):1985-1988).

[2] = target: T2, kinases (kinome) (Homo sapiens, UniProt P29320); details: EphA3 (TK), IPI00298105
T2 construct: determined in kinobeads assays with mass spectrometry detection of kinases as described previously; endogenous in cells; host or cells: cell lysate
T2 sequence (P29320 21-983): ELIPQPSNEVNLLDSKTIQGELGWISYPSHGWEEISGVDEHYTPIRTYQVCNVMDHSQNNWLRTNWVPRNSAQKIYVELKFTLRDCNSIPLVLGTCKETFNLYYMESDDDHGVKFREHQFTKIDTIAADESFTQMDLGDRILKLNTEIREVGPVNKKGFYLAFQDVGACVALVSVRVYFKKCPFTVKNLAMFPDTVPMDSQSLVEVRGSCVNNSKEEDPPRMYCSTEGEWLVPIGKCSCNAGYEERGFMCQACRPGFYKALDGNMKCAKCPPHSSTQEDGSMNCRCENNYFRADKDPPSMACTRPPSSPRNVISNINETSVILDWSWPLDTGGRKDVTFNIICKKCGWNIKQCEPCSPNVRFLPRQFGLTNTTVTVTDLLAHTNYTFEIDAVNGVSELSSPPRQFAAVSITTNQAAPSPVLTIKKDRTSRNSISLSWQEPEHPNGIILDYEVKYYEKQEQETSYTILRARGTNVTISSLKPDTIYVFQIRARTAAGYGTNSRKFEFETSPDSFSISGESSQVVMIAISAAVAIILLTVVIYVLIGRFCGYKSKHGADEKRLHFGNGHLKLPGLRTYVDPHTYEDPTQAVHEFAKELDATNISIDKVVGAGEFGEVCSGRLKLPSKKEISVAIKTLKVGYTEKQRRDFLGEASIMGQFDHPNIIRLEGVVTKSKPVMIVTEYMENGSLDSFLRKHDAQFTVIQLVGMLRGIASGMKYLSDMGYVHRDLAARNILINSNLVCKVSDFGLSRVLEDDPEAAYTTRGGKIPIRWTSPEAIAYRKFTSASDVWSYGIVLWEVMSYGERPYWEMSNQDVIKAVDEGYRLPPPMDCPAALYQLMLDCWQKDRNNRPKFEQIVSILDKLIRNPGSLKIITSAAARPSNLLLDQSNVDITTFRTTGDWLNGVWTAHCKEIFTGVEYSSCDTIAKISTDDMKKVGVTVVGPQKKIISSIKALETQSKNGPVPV
Text: as §1

[3] = target: T3, kinases (kinome) (Homo sapiens, UniProt P37173); details: TGFbR2 (TKL), IPI00164934
T3 construct: determined in kinobeads assays with mass spectrometry detection of kinases as described previously; endogenous in cells; host or cells: cell lysate
Text: as §1

[4] = target: T4, kinases (kinome) (Homo sapiens, UniProt P43403); details: ZAP70 (TK), IPI00329789
T4 construct: determined in kinobeads assays with mass spectrometry detection of kinases as described previously; endogenous in cells; host or cells: cell lysate
T4 sequence (P43403 1-619): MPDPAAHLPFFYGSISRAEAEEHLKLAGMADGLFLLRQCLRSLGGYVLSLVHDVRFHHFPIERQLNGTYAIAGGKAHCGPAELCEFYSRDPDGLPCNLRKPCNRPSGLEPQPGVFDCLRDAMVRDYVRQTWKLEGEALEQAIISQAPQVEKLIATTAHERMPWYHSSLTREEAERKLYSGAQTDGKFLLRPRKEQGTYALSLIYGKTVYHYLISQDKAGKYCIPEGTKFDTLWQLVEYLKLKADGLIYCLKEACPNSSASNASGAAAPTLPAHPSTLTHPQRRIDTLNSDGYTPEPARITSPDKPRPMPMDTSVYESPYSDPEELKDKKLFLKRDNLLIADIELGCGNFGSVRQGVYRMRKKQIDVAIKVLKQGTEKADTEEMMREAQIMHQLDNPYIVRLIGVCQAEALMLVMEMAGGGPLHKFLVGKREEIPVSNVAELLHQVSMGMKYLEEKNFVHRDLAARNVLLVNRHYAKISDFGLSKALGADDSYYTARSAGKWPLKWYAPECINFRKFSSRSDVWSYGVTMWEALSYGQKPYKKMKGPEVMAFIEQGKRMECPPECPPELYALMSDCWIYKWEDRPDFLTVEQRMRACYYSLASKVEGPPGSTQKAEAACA
Text: as §1

[5] = target: T5, kinases (kinome) (Homo sapiens, UniProt P51617); details: IRAK1 (TKL), IPI00293652
T5 construct: determined in kinobeads assays with mass spectrometry detection of kinases as described previously; endogenous in cells; host or cells: cell lysate
Text: as §1

[6] = target: T6, kinases (kinome) (Homo sapiens, UniProt Q15131); details: CDK10 (CMGC), IPI00014873
T6 construct: determined in kinobeads assays with mass spectrometry detection of kinases as described previously; endogenous in cells; host or cells: cell lysate
Text: as §1

[7] = target: T7, kinases (kinome) (Homo sapiens, UniProt Q16584); details: MLK3 (TKL), IPI00000977
T7 construct: determined in kinobeads assays with mass spectrometry detection of kinases as described previously; endogenous in cells; host or cells: cell lysate
Text: as §1

[8] = target: T8, kinases (kinome) (Homo sapiens, UniProt P10721); details: KIT (TK), IPI00022296
T8 construct: determined in kinobeads assays with mass spectrometry detection of kinases as described previously; endogenous in cells; host or cells: cell lysate
Text: as §1

[9] = target: T9, kinases (kinome) (Homo sapiens, UniProt Q8TBX8); details: PIP5K2C (Lipid Kinase), IPI00152303
T9 construct: determined in kinobeads assays with mass spectrometry detection of kinases as described previously; endogenous in cells; host or cells: cell lysate
T9 sequence (Q8TBX8 1-421): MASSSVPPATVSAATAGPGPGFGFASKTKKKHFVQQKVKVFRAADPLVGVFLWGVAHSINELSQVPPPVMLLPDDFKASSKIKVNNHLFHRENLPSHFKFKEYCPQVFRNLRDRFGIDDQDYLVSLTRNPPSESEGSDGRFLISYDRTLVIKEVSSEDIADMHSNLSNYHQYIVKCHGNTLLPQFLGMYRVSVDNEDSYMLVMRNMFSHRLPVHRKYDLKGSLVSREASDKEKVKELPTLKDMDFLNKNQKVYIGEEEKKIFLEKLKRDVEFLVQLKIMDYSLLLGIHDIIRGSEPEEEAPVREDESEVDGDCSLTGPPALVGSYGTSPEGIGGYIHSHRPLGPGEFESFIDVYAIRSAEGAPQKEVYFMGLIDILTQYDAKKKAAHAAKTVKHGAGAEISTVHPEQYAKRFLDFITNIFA
Text: as §1

Measured: IC50

T6 sequence (Q15131 whole entry): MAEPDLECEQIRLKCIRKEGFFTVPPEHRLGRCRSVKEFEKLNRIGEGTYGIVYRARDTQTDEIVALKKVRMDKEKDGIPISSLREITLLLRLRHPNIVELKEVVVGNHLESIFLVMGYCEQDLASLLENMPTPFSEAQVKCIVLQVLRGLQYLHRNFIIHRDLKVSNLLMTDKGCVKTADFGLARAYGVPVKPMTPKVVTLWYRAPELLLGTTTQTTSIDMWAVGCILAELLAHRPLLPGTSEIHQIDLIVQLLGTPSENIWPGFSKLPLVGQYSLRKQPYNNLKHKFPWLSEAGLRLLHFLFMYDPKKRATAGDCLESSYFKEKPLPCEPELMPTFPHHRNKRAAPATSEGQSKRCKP
T8 sequence (P10721 26-976): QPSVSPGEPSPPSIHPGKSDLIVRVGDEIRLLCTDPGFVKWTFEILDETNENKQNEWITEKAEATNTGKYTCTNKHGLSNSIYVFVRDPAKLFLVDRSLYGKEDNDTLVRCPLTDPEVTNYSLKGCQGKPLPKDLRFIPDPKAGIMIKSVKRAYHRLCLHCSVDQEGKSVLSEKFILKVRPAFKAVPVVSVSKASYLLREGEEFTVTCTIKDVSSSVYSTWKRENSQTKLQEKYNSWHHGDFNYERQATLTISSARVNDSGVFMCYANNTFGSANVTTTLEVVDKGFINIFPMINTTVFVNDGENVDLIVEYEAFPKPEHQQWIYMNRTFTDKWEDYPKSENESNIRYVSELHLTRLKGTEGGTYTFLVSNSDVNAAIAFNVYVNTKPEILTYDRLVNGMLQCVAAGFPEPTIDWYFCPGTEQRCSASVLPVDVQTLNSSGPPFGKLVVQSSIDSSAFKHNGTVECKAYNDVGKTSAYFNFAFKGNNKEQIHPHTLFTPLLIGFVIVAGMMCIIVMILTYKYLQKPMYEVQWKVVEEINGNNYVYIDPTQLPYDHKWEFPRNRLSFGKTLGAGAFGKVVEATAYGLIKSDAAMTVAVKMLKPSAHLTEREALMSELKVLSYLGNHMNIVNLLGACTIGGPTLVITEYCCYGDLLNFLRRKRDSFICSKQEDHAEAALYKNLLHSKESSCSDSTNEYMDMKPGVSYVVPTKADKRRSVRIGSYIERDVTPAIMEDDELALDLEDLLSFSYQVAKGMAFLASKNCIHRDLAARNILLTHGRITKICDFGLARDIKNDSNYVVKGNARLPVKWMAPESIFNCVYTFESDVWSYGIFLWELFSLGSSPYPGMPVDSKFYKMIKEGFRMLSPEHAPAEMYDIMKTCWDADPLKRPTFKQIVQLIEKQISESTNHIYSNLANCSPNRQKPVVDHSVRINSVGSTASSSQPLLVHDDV
T7 sequence (Q16584 whole entry): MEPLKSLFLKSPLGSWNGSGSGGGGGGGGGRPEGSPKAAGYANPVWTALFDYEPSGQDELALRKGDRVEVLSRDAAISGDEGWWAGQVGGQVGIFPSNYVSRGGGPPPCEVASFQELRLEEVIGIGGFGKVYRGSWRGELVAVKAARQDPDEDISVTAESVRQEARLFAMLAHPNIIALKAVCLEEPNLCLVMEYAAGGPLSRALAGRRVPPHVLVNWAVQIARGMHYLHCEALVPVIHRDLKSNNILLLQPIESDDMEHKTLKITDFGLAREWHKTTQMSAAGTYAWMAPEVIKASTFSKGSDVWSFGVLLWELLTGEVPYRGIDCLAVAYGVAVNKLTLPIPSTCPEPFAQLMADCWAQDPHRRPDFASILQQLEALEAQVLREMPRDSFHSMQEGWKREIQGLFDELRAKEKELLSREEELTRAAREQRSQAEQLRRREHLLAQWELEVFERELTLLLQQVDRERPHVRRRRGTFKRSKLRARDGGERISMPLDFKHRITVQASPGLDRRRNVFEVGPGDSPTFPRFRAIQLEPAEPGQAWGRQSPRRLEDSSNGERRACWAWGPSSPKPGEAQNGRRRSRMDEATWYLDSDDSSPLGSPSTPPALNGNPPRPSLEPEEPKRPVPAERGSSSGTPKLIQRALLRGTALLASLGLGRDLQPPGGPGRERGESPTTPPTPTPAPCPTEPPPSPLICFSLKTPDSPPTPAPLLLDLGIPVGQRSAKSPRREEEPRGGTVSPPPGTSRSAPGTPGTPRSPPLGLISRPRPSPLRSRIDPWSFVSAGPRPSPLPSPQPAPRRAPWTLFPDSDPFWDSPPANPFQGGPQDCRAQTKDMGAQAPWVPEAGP
T1 sequence (P00519 whole entry): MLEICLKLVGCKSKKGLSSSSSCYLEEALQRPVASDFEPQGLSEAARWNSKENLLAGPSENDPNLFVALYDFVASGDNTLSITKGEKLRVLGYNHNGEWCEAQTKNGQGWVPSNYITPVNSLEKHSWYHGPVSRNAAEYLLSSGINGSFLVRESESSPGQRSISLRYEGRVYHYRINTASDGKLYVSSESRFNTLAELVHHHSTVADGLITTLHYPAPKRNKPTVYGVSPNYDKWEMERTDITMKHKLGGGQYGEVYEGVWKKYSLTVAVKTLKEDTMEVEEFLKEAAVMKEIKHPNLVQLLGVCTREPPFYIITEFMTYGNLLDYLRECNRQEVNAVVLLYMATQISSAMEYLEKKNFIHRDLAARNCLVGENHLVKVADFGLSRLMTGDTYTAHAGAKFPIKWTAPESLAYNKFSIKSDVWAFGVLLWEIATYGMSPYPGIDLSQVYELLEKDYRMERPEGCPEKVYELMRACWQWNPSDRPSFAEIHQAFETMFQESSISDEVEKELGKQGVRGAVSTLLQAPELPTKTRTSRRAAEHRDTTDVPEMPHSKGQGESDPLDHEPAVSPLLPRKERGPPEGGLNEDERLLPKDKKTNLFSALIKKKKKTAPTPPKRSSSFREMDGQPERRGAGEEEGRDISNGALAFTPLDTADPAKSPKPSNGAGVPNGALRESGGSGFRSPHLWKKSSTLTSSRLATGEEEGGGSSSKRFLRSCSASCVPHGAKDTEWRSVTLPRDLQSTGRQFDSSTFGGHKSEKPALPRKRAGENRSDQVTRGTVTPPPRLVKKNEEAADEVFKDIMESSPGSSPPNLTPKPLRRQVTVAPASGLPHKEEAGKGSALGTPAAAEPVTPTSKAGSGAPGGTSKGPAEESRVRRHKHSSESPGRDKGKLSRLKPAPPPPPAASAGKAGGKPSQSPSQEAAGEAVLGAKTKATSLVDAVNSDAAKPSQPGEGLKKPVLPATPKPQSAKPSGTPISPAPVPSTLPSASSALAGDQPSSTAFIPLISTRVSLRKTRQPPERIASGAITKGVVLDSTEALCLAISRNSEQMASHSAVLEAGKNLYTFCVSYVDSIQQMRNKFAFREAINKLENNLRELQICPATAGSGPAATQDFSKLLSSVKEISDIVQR
T5 sequence (P51617 whole entry): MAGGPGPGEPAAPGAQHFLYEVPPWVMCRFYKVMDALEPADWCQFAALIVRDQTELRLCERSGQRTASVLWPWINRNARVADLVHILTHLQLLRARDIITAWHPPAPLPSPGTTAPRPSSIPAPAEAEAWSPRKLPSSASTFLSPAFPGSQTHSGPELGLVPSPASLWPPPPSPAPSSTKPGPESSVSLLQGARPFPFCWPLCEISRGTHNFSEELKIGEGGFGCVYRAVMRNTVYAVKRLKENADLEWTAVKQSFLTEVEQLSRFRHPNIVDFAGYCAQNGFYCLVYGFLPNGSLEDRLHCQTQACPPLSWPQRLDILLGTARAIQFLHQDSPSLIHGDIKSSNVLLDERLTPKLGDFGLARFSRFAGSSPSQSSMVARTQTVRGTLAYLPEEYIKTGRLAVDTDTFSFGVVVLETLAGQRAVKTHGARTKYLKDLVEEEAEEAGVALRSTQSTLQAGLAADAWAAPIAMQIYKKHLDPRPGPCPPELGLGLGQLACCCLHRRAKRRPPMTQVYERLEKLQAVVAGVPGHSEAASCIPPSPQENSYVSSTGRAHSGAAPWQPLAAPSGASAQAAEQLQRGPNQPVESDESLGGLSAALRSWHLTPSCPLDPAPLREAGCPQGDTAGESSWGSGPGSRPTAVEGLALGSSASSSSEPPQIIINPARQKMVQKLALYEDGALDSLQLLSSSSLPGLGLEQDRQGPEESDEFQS
T3 sequence (P37173 23-567): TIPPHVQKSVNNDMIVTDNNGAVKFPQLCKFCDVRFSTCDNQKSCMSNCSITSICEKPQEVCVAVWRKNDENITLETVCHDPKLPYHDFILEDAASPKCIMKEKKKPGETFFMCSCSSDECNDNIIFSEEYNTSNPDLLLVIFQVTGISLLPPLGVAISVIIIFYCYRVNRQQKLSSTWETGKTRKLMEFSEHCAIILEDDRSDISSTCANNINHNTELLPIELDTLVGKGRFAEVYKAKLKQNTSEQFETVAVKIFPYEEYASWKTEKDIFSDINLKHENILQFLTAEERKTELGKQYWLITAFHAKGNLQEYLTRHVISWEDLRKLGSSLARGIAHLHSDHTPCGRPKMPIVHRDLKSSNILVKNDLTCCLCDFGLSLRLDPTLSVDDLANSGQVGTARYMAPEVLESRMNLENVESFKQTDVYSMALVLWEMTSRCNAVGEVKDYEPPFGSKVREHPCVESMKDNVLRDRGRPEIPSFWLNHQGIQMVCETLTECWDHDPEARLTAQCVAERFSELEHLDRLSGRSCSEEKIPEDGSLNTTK

C[C@H]1COCCN1c1nc(-c2ccc(NC(=O)NC3CC3)cc2)cc(-c2ccccc2S(C)(=O)=O)n1 [Example 4, (S)-1-cyclopropyl-3-(4-(2-(3-methylmorpholino)-6-(2-(methylsulfonyl)phenyl)pyrimidin-4-yl)phenyl)urea]
not listed: [8] | [9]
> 10 µM: all other assays above

C[C@H]1COCCN1c1cc(-c2ccccc2S(C)(=O)=O)nc(-c2ccc(NC(=O)NC3CC3)cc2)n1 [Example 6, (S)-1-cyclopropyl-3-(4-(4-(3-methylmorpholino)-6-(2-(methylsulfonyl)phenyl)pyrimidin-2-yl)phenyl)urea]
> 10 µM: [3] | [7]

CCNC(=O)Nc1ccc(-c2cc(-c3ccccc3C#N)nc(N3CCOC[C@@H]3C)n2)cc1 [Example 8, (S)-1-(4-(6-(2-cyanophenyl)-2-(3-methylmorpholino)pyrimidin-4-yl)phenyl)-3-ethylurea]
> 10 µM: [2] | [7]

C[C@H]1COCCN1c1nc(-c2ccc(NC(=O)NC3CC3)cc2)cc(-c2cc(F)ccc2S(C)(=O)=O)n1 [Example 40, (S)-1-cyclopropyl-3-(4-(6-(5-fluoro-2-(methylsulfonyl)phenyl)-2-(3-methylmorpholino)pyrimidin-4-yl)phenyl)urea]
> 10 µM: all assays above

C[C@H]1COCCN1c1cc(-c2ccccn2)nc(-c2ccc(NC(=O)NCCO)cc2)n1 [Example 43, (S)-1-(2-hydroxyethyl)-3-(4-(4-(3-methylmorpholino)-6-(pyridin-2-yl)pyrimidin-2-yl)phenyl)urea]
not listed: [1] | [3]
> 10 µM: all other assays above

C[C@H]1COCCN1c1nc(-c2ccc(NC(=O)NC3CC3)cc2)cc(-c2cccnc2S(C)(=O)=O)n1 [Example 46, (S)-1-cyclopropyl-3-(4-(2-(3-methylmorpholino)-6-(2-(methylsulfonyl)pyridin-3-yl)pyrimidin-4-yl)phenyl)urea]
not listed: [1] | [6] | [7]
> 10 µM: all other assays above

C[C@H]1COCCN1c1nc(-c2ccc(NC(=O)N[C@H]3CCC[C@@H]3O)cc2)cc(-c2cc(F)ccc2S(C)(=O)=O)n1 [Example 76, 1-(4-(6-(5-fluoro-2-(methylsulfonyl)phenyl)-2-((S)-3-methylmorpholino)pyrimidin-4-yl)phenyl)-3-((1S,2S)-2-hydroxycyclopentyl)urea]
> 10 µM: [1] | [3] | [5] | [9]
